Measured values as given in patent US6737383B1, “Herbicidal oxadiazolidines” (priority 1999, dated 2004).

Experiments:
wheat = experiment: Test B pre/postemergence wheat; type: in vivo, Triticum aestivum; settings: for Plant response rating, Wheat: Postemergence
Outline: (§1)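 Test chemicals in a non-phytotoxic solvent mixture with surfactant were sprayed preemergence onto planted seeds and postemergence onto plants 2 to 18 cm tall (1- to 4-leaf stage). After twelve to sixteen days in a greenhouse, injury was visually rated against untreated controls from 0 (no effect) to 10 (complete control).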

morningglory = experiment: Test B pre/postemergence morningglory; type: in vivo, Ipomoea hederacea
Outline: as §1

purple nutsedge = experiment: Test B pre/postemergence purple nutsedge; type: in vivo, Cyperus rotundus
Outline: as §1

rape = experiment: Test B pre/postemergence rape; type: in vivo, Brassica napus
Outline: as §1

cocklebur = experiment: Test B pre/postemergence cocklebur; type: in vivo, Xanthium strumarium
Outline: as §1

surinam grass = experiment: Test B pre/postemergence surinam grass; type: in vivo, Brachiaria decumbens
Outline: as §1

pigweed = experiment: Test B pre/postemergence pigweed; type: in vivo, Amaranthus retroflexus; settings: for Plant response rating, Redroot pigweed: Postemergence
Outline: as §1

crabgrass = experiment: Test B pre/postemergence crabgrass; type: in vivo, Digitaria sanguinalis
Outline: as §1

blackgrass = experiment: Test B pre/postemergence blackgrass; type: in vivo, Alopecurus myosuroides
Outline: as §1

bedstraw = experiment: Test B pre/postemergence bedstraw; type: in vivo, Galium aparine
Outline: as §1

giant foxtail = experiment: Test B pre/postemergence giant foxtail; type: in vivo, Setaria faberii
Outline: as §1

sugar beet = experiment: Test B pre/postemergence sugar beet; type: in vivo, Beta vulgaris; settings: for Plant response rating, Sugarbeets: Postemergence
Outline: as §1

soybean = experiment: Test B pre/postemergence soybean; type: in vivo, Glycine max; settings: for Plant response rating, Soybean: Postemergence
Outline: as §1

wild oat = experiment: Test B pre/postemergence wild oat; type: in vivo, Avena fatua; settings: for Plant response rating, Wild oats: Postemergence
Outline: as §1

corn = experiment: Test B pre/postemergence corn; type: in vivo, Zea mays
Outline: as §1

velvetleaf = experiment: Test B pre/postemergence velvetleaf; type: in vivo, Abutilon theophrasti; settings: for Plant response rating, Velvetleaf: Postemergence
Outline: as §1

[1] = Rate 500 g/ha, scale of 0 to 10 where 0 is no effect and 10 is complete control
[2] = Preemergence, Rate 62 g/ha, scale 0 to 10 (0 no effect, 10 complete control)
[3] = Preemergence, Rate 125 g/ha, scale 0 to 10, 0 is no effect, 10 is complete control
[4] = Preemergence, Rate 500 g/ha, scale of 0 to 10 where 0 is no effect and 10 is complete control
[5] = Rate 250 g/ha, scale of 0 to 10 where 0 is no effect and 10 is complete control
[6] = Postemergence, Rate 62 g/ha, scale of 0 to 10, 0 is no effect, 10 is complete control
[7] = Postemergence, Rate 125 g/ha, scale 0 to 10, 0 is no effect, 10 is complete control
[8] = Postemergence, Rate 500 g/ha, scale of 0 to 10 where 0 is no effect and 10 is complete control
[9] = Rate 250 g/ha, Postemergence, scale of 0 to 10 where 0 is no effect and 10 is complete control

## CCOC(=O)C=C(Cn1c(=O)on(C(=O)N(c2ccccc2)C(C)C)c1=O)OCC [Compound 578]
wheat; [1]
  Plant response rating, Wheat: 0
wheat; [2]
  Wheat plant response rating: 0
wheat; [3]
  Wheat plant response rating: 0
wheat; Preemergence, Rate 250 g/ha
  Wheat plant response rating (0 to 10 scale): 0
wheat; [4]
  Wheat plant response rating: 2
wheat; [5]
  Plant response rating, Wheat: 0
morningglory; [6]
  Morningglory plant response rating: 9
morningglory; [7]
  Morningglory plant response rating: 10
morningglory; [8]
  Plant response rating, Morningglory: 10
morningglory; [2]
  Morningglory plant response rating: 0
morningglory; [3]
  Morningglory plant response rating: 0
morningglory; Preemergence, Rate 250 g/ha
  Morningglory plant response rating (0 to 10 scale): 0
morningglory; [4]
  Morningglory plant response rating: 0
morningglory; [9]
  Plant response rating, Morningglory: 10
Purple nutsedge; [8]
  Plant response rating, Nutsedge: 0
Purple nutsedge; [2]
  Nutsedge plant response rating: 0
Purple nutsedge; [3]
  Nutsedge plant response rating: 0
Purple nutsedge; Preemergence, Rate 250 g/ha
  Nutsedge plant response rating (0 to 10 scale): 0
Purple nutsedge; [4]
  Nutsedge plant response rating: 0
rape; [6]
  Rape plant response rating: 2
rape; [7]
  Rape plant response rating: 2
rape; [8]
  Plant response rating, Rape: 4
rape; [2]
  Rape plant response rating: 0
rape; [3]
  Rape plant response rating: 0
rape; Preemergence, Rate 250 g/ha
  Rape plant response rating (0 to 10 scale): 2
rape; [4]
  Rape plant response rating: 4
rape; [9]
  Plant response rating, Rape: 4
cocklebur; [6]
  Cocklebur plant response rating: 0
cocklebur; [7]
  Cocklebur plant response rating: 0
cocklebur; [8]
  Plant response rating, Cocklebur: 0
cocklebur; [2]
  Cocklebur plant response rating: 0
cocklebur; [3]
  Cocklebur plant response rating: 0
cocklebur; Preemergence, Rate 250 g/ha
  Cocklebur plant response rating (0 to 10 scale): 0
cocklebur; [4]
  Cocklebur plant response rating: 3
cocklebur; [9]
  Plant response rating, Cocklebur: 0
Surinam grass; [6]
  B. signalgrass plant response rating: 0
Surinam grass; [7]
  B. signalgrass plant response rating: 0
Surinam grass; [8]
  Plant response rating, B. signalgrass: 0
Surinam grass; [2]
  B. signalgrass plant response rating: 0
Surinam grass; [3]
  B. signalgrass plant response rating: 3
Surinam grass; Preemergence, Rate 250 g/ha
  B. signalgrass plant response rating (0 to 10 scale, 0 is no effect, 10 is complete control): 9
Surinam grass; [4]
  B. signalgrass plant response rating: 9
Surinam grass; [9]
  Plant response rating, B. signalgrass: 0
pigweed; [1]
  Plant response rating, Redroot pigweed: 3
pigweed; [2]
  Redroot pigweed plant response rating: 2
pigweed; [3]
  Redroot pigweed plant response rating: 4
pigweed; Preemergence, Rate 250 g/ha
  Redroot pigweed plant response rating (0 to 10 scale): 9
pigweed; [4]
  Redroot pigweed plant response rating: 10
pigweed; [5]
  Plant response rating, Redroot pigweed: 3
crabgrass; [6]
  Crabgrass plant response rating: 0
crabgrass; [7]
  Crabgrass plant response rating: 2
crabgrass; [8]
  Plant response rating, Crabgrass: 9
crabgrass; [2]
  Crabgrass plant response rating: 0
crabgrass; [3]
  Crabgrass plant response rating: 9
crabgrass; Preemergence, Rate 250 g/ha
  Crabgrass plant response rating (0 to 10 scale): 9
crabgrass; [4]
  Crabgrass plant response rating: 10
crabgrass; [9]
  Plant response rating, Crabgrass: 4
blackgrass; [6]
  Blackgrass plant response rating: 0
blackgrass; [7]
  Blackgrass plant response rating: 0
blackgrass; [8]
  Plant response rating, Blackgrass: 2
blackgrass; [2]
  Blackgrass plant response rating: 0
blackgrass; [3]
  Blackgrass plant response rating: 0
blackgrass; Preemergence, Rate 250 g/ha
  Blackgrass plant response rating (0 to 10 scale): 0
blackgrass; [4]
  Blackgrass plant response rating: 4
blackgrass; [9]
  Plant response rating, Blackgrass: 0
bedstraw; [7]
  Bedstraw plant response rating: 8
bedstraw; [2]
  Bedstraw plant response rating: 0
bedstraw; [3]
  Bedstraw plant response rating: 0
bedstraw; Preemergence, Rate 250 g/ha
  Bedstraw plant response rating (0 to 10 scale): 0
bedstraw; [4]
  Bedstraw plant response rating: 0
Giant foxtail; [6]
  Giant foxtail plant response rating: 0
Giant foxtail; [7]
  Giant foxtail plant response rating: 4
Giant foxtail; [8]
  Plant response rating, Giant foxtail: 8
Giant foxtail; [2]
  Giant foxtail plant response rating: 2
Giant foxtail; [3]
  Giant foxtail plant response rating: 9
Giant foxtail; Preemergence, Rate 250 g/ha
  Giant foxtail plant response rating (0 to 10 scale): 10
Giant foxtail; [4]
  Giant foxtail plant response rating: 10
Giant foxtail; [9]
  Plant response rating, Giant foxtail: 7
Sugar beet; [1]
  Plant response rating, Sugarbeets: 4
Sugar beet; [2]
  Sugarbeets plant response rating: 0
Sugar beet; [3]
  Sugarbeets plant response rating: 2
Sugar beet; Preemergence, Rate 250 g/ha
  Sugarbeets plant response rating (0 to 10 scale): 3
Sugar beet; [4]
  Sugarbeets plant response rating: 3
Sugar beet; [5]
  Plant response rating, Sugarbeets: 0
soybean; [1]
  Plant response rating, Soybean: 4
soybean; [2]
  Soybean plant response rating: 0
soybean; [3]
  Soybean plant response rating: 0
soybean; Preemergence, Rate 250 g/ha
  Soybean plant response rating (0 to 10 scale): 0
soybean; [4]
  Soybean plant response rating: 0
soybean; [5]
  Plant response rating, Soybean: 3
Wild oat; [1]
  Plant response rating, Wild oats: 0
Wild oat; [2]
  Wild oats plant response rating: 0
Wild oat; [3]
  Wild oats plant response rating: 0
Wild oat; Preemergence, Rate 250 g/ha
  Wild oats plant response rating (0 to 10 scale): 2
Wild oat; [4]
  Wild oats plant response rating: 2
Wild oat; [5]
  Plant response rating, Wild oats: 0
corn; [6]
  Corn plant response rating: 0
corn; [7]
  Corn plant response rating: 0
corn; [8]
  Plant response rating, Corn: 0
corn; [2]
  Corn plant response rating: 3
corn; [3]
  Corn plant response rating: 2
corn; Preemergence, Rate 250 g/ha
  Corn plant response rating (0 to 10 scale): 2
corn; [4]
  Corn plant response rating: 4
corn; [9]
  Plant response rating, Corn: 0
velvetleaf; [1]
  Plant response rating, Velvetleaf: 3
velvetleaf; [2]
  Velvetleaf plant response rating: 0
velvetleaf; [3]
  Velvetleaf plant response rating: 2
velvetleaf; Preemergence, Rate 250 g/ha
  Velvetleaf plant response rating (0 to 10 scale): 2
velvetleaf; [4]
  Velvetleaf plant response rating: 2
velvetleaf; [5]
  Plant response rating, Velvetleaf: 4
